Source: US20060276464A1, “Diarylsulfone sulfonamides and use thereof” (Wyeth, priority 2005, published 2006)
Read-outs that look alike come from different tables or passages of the source.

Assays:
SFRP-1 [1] = biological target: T1, SFRP-1 (Homo sapiens, UniProt Q8N474); assay: Fluorescence polarization binding assay (competitive displacement of a probe compound from SFRP-1); conditions: fluorescence anisotropy, 45 nM SFRP-1, 20 nM probe;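 further: test compound competes with a fluorescent probe held by SFRP-1, seen as a drop in probe anisotropy after incubation in darkness, with anisotropy as function of rising compound dose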
T1 sequence (Q8N474 32-314): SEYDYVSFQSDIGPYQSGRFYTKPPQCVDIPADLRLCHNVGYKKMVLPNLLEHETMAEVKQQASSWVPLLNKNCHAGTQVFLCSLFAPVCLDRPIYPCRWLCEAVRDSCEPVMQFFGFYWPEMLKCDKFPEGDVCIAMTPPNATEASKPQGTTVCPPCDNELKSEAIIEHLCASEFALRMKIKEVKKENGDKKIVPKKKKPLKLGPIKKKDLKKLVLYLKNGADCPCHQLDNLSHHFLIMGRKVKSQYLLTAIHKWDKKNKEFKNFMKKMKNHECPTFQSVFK

SFRP-1 [2] = biological target: T1, SFRP-1; assay: Cell-based assay for in vitro measurement of SFRP-1/SARP2 antagonist activity (U2OS cells co-transfected with 16x TCF-tk-Luciferase reporter, Wnt and hSFRP-1); conditions: for fold induction at 10 µM / fold induction at 15 µM: U2OS; for fold induction at 10 µM: read-out: Fold Induction with SFRP-1, U2OS cells, single dose 10 μM, luciferase reporter, fold induction over SFRP-1 control;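 on all read-outs here: U2OS cells co-transfected with a TCF-tk luciferase reporter, a Wnt vector, hSFRP-1 or empty vector and CMV-βgal, luciferase luminescence read in cell lysates alongside βgal activity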
[3] = read-out: Fold Induction with SFRP-1, Conc 15 μM, single dose, luciferase reporter, fold induction over SFRP-1 control, cells with SFRP-1
[4] = read-out: Fold Induction without SFRP-1, Conc 15 μM, single dose, luciferase reporter, cells without SFRP-1 (specificity control)
[5] = read-out: Fold Induction with SFRP-1, Conc 15 μM, with SFRP-1, fold induction over SFRP-1 control, single dose
[6] = read-out: Fold Induction without SFRP-1, Conc 15 μM, without SFRP-1, single dose

IC50 (SFRP-1 [1]) [nM] | fold induction at 10 µM (SFRP-1 [2]) | fold induction at 15 µM (SFRP-1 [2]; [3]) | fold induction at 15 µM (SFRP-1 [2]; [4]) | EC50 (SFRP-1 [2]) [nM] | fold induction at 15 µM (SFRP-1 [2]; [5]) | fold induction at 15 µM (SFRP-1 [2]; [6]) | SMILES
10000 | 2.5 |  |  |  |  |  | CC(CO)NS(=O)(=O)c1cc(S(=O)(=O)c2ccc(F)cc2)ccc1C(C)C (centres unmarked) [Example 733, 5-[(4-fluorophenyl)sulfonyl]-N-(2-hydroxy-1-methylethyl)-2-isopropylbenzenesulfonamide]
2100 |  | 2 | 0.9 |  |  |  | COC(=O)N1CCC(NS(=O)(=O)c2cc(S(=O)(=O)c3ccccc3)ccc2C)CC1 [Example 488, methyl 4-({[2-methyl-5-(phenylsulfonyl)phenyl]sulfonyl}amino)piperidine-1-carboxylate]
4000 | 2.8 |  |  | 2550 |  |  | CN(CCNS(=O)(=O)c1cc(S(=O)(=O)c2ccccc2)ccc1C(F)(F)F)CCC(=O)OC(C)(C)C [Example 961, tert-butyl N-methyl-N-[2-({[5-(phenylsulfonyl)-2-(trifluoromethyl)phenyl]sulfonyl}amino)ethyl]-[…]-alaninate]
400 | 3.2 |  |  | 695 |  |  | COC(=O)[C@H]1CC[C@H](CNS(=O)(=O)c2cc(S(=O)(=O)c3ccccc3)ccc2C(F)(F)F)CC1 [Example 947, methyl trans-4-[({[5-(phenylsulfonyl)-2-(trifluoromethyl)phenyl]sulfonyl}amino)methyl]cyclohexanecarboxylate]
4400 | 1.7 |  |  |  |  |  | CC(C)(C)OC(=O)N1CCC[C@H](NS(=O)(=O)c2cc(S(=O)(=O)c3ccccc3)ccc2C(F)(F)F)C1 [Example 786, tert-butyl(3S)-3-({[5-(phenylsulfonyl)-2-(trifluoromethyl)phenyl]sulfonyl}amino)piperidine-1-carboxylate]
2000 |  | 3 | 1.1 |  |  |  | Cc1cc(N(C)C)ccc1S(=O)(=O)c1ccc(C(C)C)c(S(=O)(=O)NCCc2ccccn2)c1 [Example 600, 5-{[4-(dimethylamino)-2-methylphenyl]sulfonyl}-2-isopropyl-N-(2-pyridin-2-ylethyl)benzenesulfonamide]
1700 |  |  |  |  | 2.5 | 1 | CNc1ccc(S(=O)(=O)c2ccc(C)c(S(=O)(=O)NCCc3ccccn3)c2)cc1 [Example 356, 2-methyl-5-{[4-(methylamino)phenyl]sulfonyl)-N-(2-pyridin-2-ylethyl)benzenesulfonamide]
1000 | 3.3 |  |  |  |  |  | CN(CCNS(=O)(=O)c1cc(S(=O)(=O)c2ccccc2)ccc1C(F)(F)F)C(=O)N1CCOCC1 [Example 835, N-methyl-N-[2-({[5-(phenylsulfonyl)-2-(trifluoromethyl)phenyl]sulfonyl}amino)ethyl]morpholine-4-carboxamide]
2400 | 2.1 |  |  | 4510 |  |  | CN(CCCNS(=O)(=O)c1cc(S(=O)(=O)c2ccccc2)ccc1C(F)(F)F)C(=O)OC(C)(C)C [Example 927, tert-butyl methyl[3-({[5-(phenylsulfonyl)-2-(trifluoromethyl)phenyl]sulfonyl}amino)propyl]carbamate]
1400 |  | 3.9 | 1.1 |  |  |  | O=C(N1CCC(NS(=O)(=O)c2cc(S(=O)(=O)c3ccccc3)ccc2Cl)CC1)C(F)(F)F [Example 647, 2-chloro-5-(phenylsulfonyl)-N-[1-(trifluoroacetyl)piperidin-4-yl]benzenesulfonamide]
800 | 2.9 |  |  |  |  |  | O=S(=O)(NC1CCNC1)c1cc(S(=O)(=O)c2ccccc2)ccc1C(F)(F)F (centres unmarked) [Example 840, 5-(phenylsulfonyl)-N-pyrrolidin-3-yl-2-(trifluoromethyl)benzenesulfonamide]
150 |  |  |  | 366 |  |  | CNC(=O)CN1CCC(NS(=O)(=O)c2cc(S(=O)(=O)c3ccccc3)ccc2C(F)(F)F)CC1 [Example 1083, N-methyl-2-[4-({[5-(phenylsulfonyl)-2-(trifluoromethyl)phenyl]sulfonyl}amino)piperidin-1-yl]acetamide]
1300 |  |  |  |  | 2.3 | 1 | Cc1ccc(S(=O)(=O)c2ccccc2)cc1S(=O)(=O)NC1CCN(S(C)(=O)=O)CC1 [Example 478, 2-methyl-N-[1-(methylsulfonyl)piperidin-4-yl]-5-(phenylsulfonyl)benzenesulfonamide]
140 |  |  |  | 455 |  |  | COC(=O)CN1CCC(NS(=O)(=O)c2cc(S(=O)(=O)c3ccccc3)ccc2C(F)(F)F)CC1 [Example 1063, methyl [4-({[5-(phenylsulfonyl)-2-(trifluoromethyl)phenyl]sulfonyl)amino)piperidin-1-yl]acetate]
180 | 5.1 |  |  | 720 |  |  | O=S(=O)(NCCn1ccnc1)c1cc(S(=O)(=O)c2ccccc2)ccc1C(F)(F)F [Example 739, N-[2-(1H-Imidazol-1-yl)ethyl]-5-(phenylsulfonyl)-2-(trifluoromethyl)benzenesulfonamide]
500 |  | 2.1 | 1.1 |  |  |  | C#CCOC(=O)N1CCC(NS(=O)(=O)c2cc(S(=O)(=O)c3ccccc3)ccc2C)CC1 [Example 487, prop-2-yn-1-yl 4-({[2-methyl-5-(phenylsulfonyl)phenyl]sulfonyl}amino)piperidine-1-carboxylate]
280 | 3.4 |  |  | 850 |  |  | CN(CCNS(=O)(=O)c1cc(S(=O)(=O)c2ccccc2)ccc1C(F)(F)F)C(=O)NC1CCNCC1 [Example 881, N-(2-{methyl[(piperidin-4-ylamino)carbonyl]amino}ethyl)-5-(phenylsulfonyl)-2-(trifluoromethyl)benzenesulfonamide]
2600 |  |  |  |  | 1.7 | 1 | CC(C)c1ccc(S(=O)(=O)c2ccc(C(C)(C)C)cc2)cc1S(=O)(=O)NCCc1ccccn1 [Example 435, 5-[(4-tert-butylphenyl)sulfonyl]-2-isopropyl-N-(2-pyridin-2-ylethyl)benzenesulfonamide]
500 |  | 2.8 | 1 |  |  |  | CC(=O)N1CCC(NS(=O)(=O)c2cc(S(=O)(=O)c3ccc(F)cc3)ccc2C(C)C)CC1 [Example 529, N-(1-acetylpiperidin-4-yl)-5-[(4-fluorophenyl)sulfonyl]-2-isopropylbenzenesulfonamide]
1400 |  | 2.3 | 0.9 |  |  |  | CCCc1ccc(S(=O)(=O)c2ccc(F)cc2)cc1S(=O)(=O)NCC1CCOCC1 [Example 561, 5-[(4-Fluorophenyl)sulfonyl]-2-propyl-N-(tetrahydro-2H-pyran-4-ylmethyl)benzenesulfonamide]
1700 |  |  |  |  | 1.7 | 1.1 | Cc1ccc(S(=O)(=O)c2ccccc2)cc1S(=O)(=O)NC1CCN(C(=O)c2ccc(Cl)cc2)CC1 [Example 466, N-[1-(4-chlorobenzoyl)piperidin-4-yl]-2-methyl-5-(phenylsulfonyl)benzenesulfonamide]
500 |  |  |  | 1440 |  |  | O=S(=O)(NCc1ccc(N2CCCC2)nc1)c1cc(S(=O)(=O)c2ccccc2)ccc1C(F)(F)F [Example 1032, 5-(phenylsulfonyl)-N-[(6-pyrrolidin-1-ylpyridin-3-yl)methyl]-2-(trifluoromethyl)benzenesulfonamide]
700 |  | 2.3 | 1 |  |  |  | CC(C)c1ccc(S(=O)(=O)c2cc(Cl)cc(Cl)c2)cc1S(=O)(=O)NCCc1ccccn1 [Example 505, 5-[(3,5-dichlorophenyl)sulfonyl]-2-isopropyl-N-(2-pyridin-2-ylethyl)benzenesulfonamide]
500 |  | 2.1 | 1.1 |  |  |  | CCOC(=O)N1CCC(NS(=O)(=O)c2cc(S(=O)(=O)c3ccc(F)cc3)ccc2C(C)C)CC1 [Example 526, ethyl 4-[({5-[(4-fluorophenyl)sulfonyl]-2-isopropylphenyl}sulfonyl)amino]piperidine-1-carboxylate]
300 |  |  |  |  | 2.7 | 1.5 | CC(C)c1ccc(S(=O)(=O)c2ccccc2)cc1S(=O)(=O)NCCc1ccccc1 [Example 295, 2-isopropyl-N-(2-phenylethyl)-5-(phenylsulfonyl)benzenesulfonamide]
3000 | 3.1 |  |  | 7010 |  |  | O=S(=O)(NCCC1CCCN1)c1cc(S(=O)(=O)c2ccccc2)ccc1C(F)(F)F (centres unmarked) [Example 913, 5-(phenylsulfonyl)-N-(2-pyrrolidin-2-ylethyl)-2-(trifluoromethyl)benzenesulfonamide]
800 | 3.2 |  |  | 2830 |  |  | CC(C)c1ccc(S(=O)(=O)c2ccccc2)cc1S(=O)(=O)NC1CCOCC1 [Example 670, 2-isopropyl-5-(phenylsulfonyl)-N-(tetrahydro-2H-pyran-4-yl)benzenesulfonamide]
